Test results: patent US11945824B2, “Heterocyclic compounds as anti-viral agents” (priority 2020, dated 2024)
Where two headings read alike, the source gives them in different places.

Experiments:
[1] = system: Human RSV-A (“Long” strain); assay: RSV-A assay (CPE, ATPlite readout in Hep-2 cells); type: cell-based; conditions: human respiratory syncytial virus, read-out: Human RSV-A (“Long” strain) EC50
From the text: Hep-2 cells, (originally derived from tumors grown in irradiated-cortisonised weanling rats that had been injected with epidermoid carcinoma tissue from a person's larynx, but later found to be indistinguishable from HeLa cells by PCR DNA analysis), were used for the culturing of genotype A, “Long” strain RSV. Flasks were inoculated with RSV and viral stocks were collected once cytopathic effect (CPE) was greater than 90%. Viral stocks in 25% sucrose media were snap frozen using liquid nitrogen to increase viral stability. Viral stock titers were quantified by tissue culture infectious dose 50% (TCID50) using 8,000 cells per well and 3-fold viral dilutions across a 96-well plate, cultured for 4 days. Viral stock titers were also quantified by a plaque forming unit assay, as described elsewhere.
Following extensive parameter testing, the final assay is run as follows: Hep-2 cells are seeded into the inner 60 wells of a 96-well plate at 8,000 cells per well in a volume of 50 μL using Growth Media (DMEM without phenol red, 1% L-Glut, 1% Penn/Strep, 1% nonessential amino acids, 10% heat-inactivated FBS). 2-fold serial dilutions of control and test compounds are added to the wells in duplicate in a total volume of 25 μL. Viral stock is then added to the wells at a multiplicity of infection (MOI) of 0.1 in a volume of 25 μL, bringing the total volume of each well to 100 μL. The MOI is calculated using the PFU/mL, or TCID50 if unavailable. Each 96-well plate has a control column of 6 wells with cells and virus but no compound (negative control, max CPE), a column with cells but no compound or virus (positive control, minimum CPE), and a column with no cells or virus or compound (background plate/reagent control). The control wells with cells but no virus are given an additional 25 μL of growth media containing an equal quantity of sucrose as those wells receiving the viral stock in order to keep consistent in media and volume conditions. The outer wells of the plate are filled with 125 μL of moat media (DMEM, 1% Penn/Strep) to act as a thermal and evaporative moat around the test wells. Following a 5-day incubation period, the plates are read using ATPlite (50 uL added per well), which quantifies the amount of ATP (a measure of cell health) present in each well. Assay plates are read using the Envision luminometer. […] EC50 ranges are as follows: A<0.2 μM; B≥0.2 μM.

[2] = system: rHMPV-GFP (recombinant HMPV CAN97-83, MPV-GFP1); assay: HMPV antiviral assay (eGFP fluorescence in Vero E6 cells); type: cell-based; conditions: human metapneumovirus, Vero C1008, 120 h, read-out: rHMPV-GFP EC50
Procedure: Method for HMPV Antiviral Assay
HMPV antiviral activity was evaluated using a recombinant version of HMPV CAN97-83 engineered to contain the coding sequence for enhanced green fluorescence protein (eGFP) in the 3′ end of the virus genome (MPV-GFP1, ViraTree). Vero E6 cells (ATCC #CCL-7) were seeded at a density of 12,000 cells/100 μL/well into 96-well cell plates (VENDOR) one day prior to the assay. On the day of screening, the cell culture medium was aspirated from the wells and cells were washed twice with serum-free Eagle's Modified Essential Medium (EMEM, ATCC #) containing 1% penicillin-streptomycin (Invitrogen) (SF-EMEM). Cell washes were performed by dispensing 100 μL SF-EMEM per well and immediately aspirating the wash medium from the well. Following the second wash step, serum-free OptiMEM (Invitrogen, Cat No.) (SF-OptiMEM) containing 0.5 μg/mL TPCK-Trypsin (VENDOR) and 1% penicillin-streptomycin was added to the cells at 50 μL/well. Compounds were added into the 96-well plates using a JANUS automated liquid handling system (VENDOR). Compounds were initially diluted 1:50 into an intermediate 96-well plate containing SF-OptiMEM prior to transfer to the assay plate (25 μL/well). Each of the test compounds were tested in duplicate wells at final concentrations starting from 8 μM or 2 μM using ½ stepwise dilutions for a total of 8 points. Virus infection was performed by preparing a working stock of MPV-GFP1 at a multiplicity of infection (MOI) equal to 0.05/25 μL and aliquoting 25 μL of virus inoculum to the compound and positive control wells. SF-OptiMEM was added (25 μL/well) to the appropriate wells to serve as a virus-free negative control for the assay. The final DMSO concentration of all wells is 0.5%. Plates were incubated at 32° C., 5% CO2 for 5 days. After 5 days incubation, eGFP fluorescence intensity was measured at […] using a Spectramax i3X plate reader (VENDOR).
Percent viral inhibition was calculated using the following equation: y=[[…](XQ/XP)]×100 Where XQ is the fluorescence intensity measured in a well containing recombinant MPV-GFP1-infected, compound-treated cells and XP is the average fluorescence intensity measured in the wells containing untreated cells infected with recombinant virus. EC50 values were then calculated by non-linear regression using a four-parameter curve logistic equation. The curve fit model employed was XLFit Dose Response One Site Model 200: y=(A+(B/(1+((x/C)^D)))) Where A is the minimum y value, B is the maximum y value, C is the log EC50 value, and D is the slope factor. The EC50 for each compound is listed in Table 2 and EC50 ranges are as follows: A<0.2 μM; B≥0.2 μM.

[3] = 120 h, Hep-2 cells, MOI 0.1, 5-day incubation, ATPlite

`C[C@]1(c2cc[nH]n2)COc2c1cc([C@@](O)(CNC(=O)c1cc(OC3CC3)c3ncccc3c1)C(F)(F)F)nc2-c1ccc(F)cc1` [Example 22, 8-cyclopropoxy-N-((S)-3,3,3-trifluoro-2-((S)-7-(4-fluorophenyl)-3-methyl-3-(1H-pyrazol-3-yl)-2,3-dihydrofuro[2,3-c]pyridin-5-yl)-2-hydroxypropyl)quinoline-6-carboxamide] showed an EC50 [1, 3] of less than 200 nM and an EC50 [2] greater than 200 nM.
Compound `COc1cc(C(=O)NC[C@](O)(c2cc3c(c(-c4ccc(F)cc4)n2)OC[C@@]3(n2cnnc2)C(F)(F)F)C2CC2)ccc1OC1CC1` [Example 3, 4-cyclopropoxy-N-((S)-2-cyclopropyl-2-((R)-7-(4-fluorophenyl)-3-(4H-1,2,4-triazol-4-yl)-3-(trifluoromethyl)-2,3-dihydrofuro[2,3-c]pyridin-5-yl)-2-hydroxyethyl)-3-methoxybenzamide] has an EC50 ([1]; HEp-2, 120 h) of less than 200 nM and an EC50 [2] greater than 200 nM.
For `COc1cc(C(=O)NC[C@](O)(c2cc3c(c(-c4ccc(F)cc4)n2)OC[C@@]3(n2ccnn2)C(F)(F)F)C(F)(F)F)ccc1OC1CC1` [Example 1, 4-cyclopropoxy-3-methoxy-N-((S)-3,3,3-trifluoro-2-((R)-7-(4-fluorophenyl)-3-(1H-1,2,3-triazol-1-yl)-3-(trifluoromethyl)-2,3-dihydrofuro[2,3-c]pyridin-5-yl)-2-hydroxypropyl)benzamide], the EC50 [1, 3] was greater than 200 nM and the EC50 [2] was greater than 200 nM.
Compound `COc1cc(C(=O)NC[C@](O)(c2cc3c(c(-c4ccc(F)cc4)n2)OC[C@]3(C)n2cnnc2)C2CC2)ccc1OC1CC1` [Example 15, 4-cyclopropoxy-N-((S)-2-cyclopropyl-2-((R)-7-(4-fluorophenyl)-3-methyl-3-(4H-1,2,4-triazol-4-yl)-2,3-dihydrofuro[2,3-c]pyridin-5-yl)-2-hydroxyethyl)-3-methoxybenzamide] has an EC50 [1, 3] of less than 200 nM and an EC50 [2] greater than 200 nM.
In the case of `COc1cc(C(=O)NC[C@](O)(c2cc3c(c(-c4ccc(F)cc4)n2)OC[C@]3(C)n2ccnc2)C(F)(F)F)cc2cccnc12` [Example 8, 8-methoxy-N-((S)-3,3,3-trifluoro-2-((R)-7-(4-fluorophenyl)-3-(1H-imidazol-1-yl)-3-methyl-2,3-dihydrofuro[2,3-c]pyridin-5-yl)-2-hydroxypropyl)quinoline-6-carboxamide], the EC50 [1, 3] is reported as less than 200 nM.
Work on `COc1cc(C(=O)NC[C@](C)(O)c2cc3c(c(-c4ccc(F)cc4)n2)OC[C@]3(C)n2cnnc2)ccc1OC1CC1` [Example 13, 4-cyclopropoxy-N-((S)-2-((R)-7-(4-fluorophenyl)-3-methyl-3-(4H-1,2,4-triazol-4-yl)-2,3-dihydrofuro[2,3-c]pyridin-5-yl)-2-hydroxypropyl)-3-methoxybenzamide] yielded an EC50 [1, 3] of less than 200 nM and an EC50 [2] greater than 200 nM.
`COc1cc(C(=O)NC[C@](O)(c2cc3c(c(-c4ccc(F)cc4)n2)OC[C@@]3(n2ccnc2)C(F)(F)F)C2CC2)ccc1OC1CC1` [Example 4, 4-cyclopropoxy-N-((S)-2-cyclopropyl-2-((R)-7-(4-fluorophenyl)-3-(1H-imidazol-1-yl)-3-(trifluoromethyl)-2,3-dihydrofuro[2,3-c]pyridin-5-yl)-2-hydroxyethyl)-3-methoxybenzamide] showed an EC50 ([1]; HEp-2, 120 h) of less than 200 nM.
`COc1cc(C(=O)NC[C@](O)(c2cc3c(c(-c4ccc(F)cc4)n2)OC[C@]3(C)n2ccnn2)C2CC2)ccc1OC1CC1` [Example 17, 4-cyclopropoxy-N-((S)-2-cyclopropyl-2-((R)-7-(4-fluorophenyl)-3-methyl-3-(1H-1,2,3-triazol-1-yl)-2,3-dihydrofuro[2,3-c]pyridin-5-yl)-2-hydroxyethyl)-3-methoxybenzamide] showed an EC50 [1, 3] of less than 200 nM and an EC50 [2] of less than 200 nM.
Work on `COc1cc(C(=O)NC[C@](O)(c2cc3c(c(-c4ccc(F)cc4)n2)OC[C@]3(C)c2cnn[nH]2)C(F)(F)F)cc2cccnc12` [Example 18, 8-methoxy-N-((S)-3,3,3-trifluoro-2-((S)-7-(4-fluorophenyl)-3-methyl-3-(1H-1,2,3-triazol-5-yl)-2,3-dihydrofuro[2,3-c]pyridin-5-yl)-2-hydroxypropyl)quinoline-6-carboxamide] yielded an EC50 [1, 3] of less than 200 nM and an EC50 [2] greater than 200 nM.
Compound `COc1cc(C(=O)NC[C@](C)(O)c2cc3c(c(-c4ccc(F)cc4)n2)OC[C@@]3(n2cnnc2)C(F)(F)F)ccc1OC1CC1` [Example 2, 4-cyclopropoxy-N-((S)-2-((R)-7-(4-fluorophenyl)-3-(4H-1,2,4-triazol-4-yl)-3-(trifluoromethyl)-2,3-dihydrofuro[2,3-c]pyridin-5-yl)-2-hydroxypropyl)-3-methoxybenzamide] has an EC50 [1, 3] of less than 200 nM and an EC50 [2] greater than 200 nM.
`COc1cc(C(=O)NC[C@](O)(c2cc3c(c(-c4ccc(F)cc4)n2)OC[C@]3(C)c2nnn[nH]2)C(F)(F)F)cc2cccnc12` [Example 19, 8-methoxy-N-((S)-3,3,3-trifluoro-2-((S)-7-(4-fluorophenyl)-3-methyl-3-(1H-tetrazol-5-yl)-2,3-dihydrofuro[2,3-c]pyridin-5-yl)-2-hydroxypropyl)quinoline-6-carboxamide] showed an EC50 [1, 3] greater than 200 nM.
For `COc1cc(C(=O)NC[C@](O)(c2cc3c(c(-c4ccc(F)cc4)n2)OC[C@]3(C)n2cc(C3CC3)nn2)C(F)(F)F)ccc1OC1CC1` [Example 12, 4-cyclopropoxy-N-((S)-2-((R)-3-(4-cyclopropyl-1H-1,2,3-triazol-1-yl)-7-(4-fluorophenyl)-3-methyl-2,3-dihydrofuro[2,3-c]pyridin-5-yl)-3,3,3-trifluoro-2-hydroxypropyl)-3-methoxybenzamide], the EC50 [1, 3] was less than 200 nM.
`COc1cc(C(=O)NC[C@](O)(c2cc3c(c(-c4ccc(F)cc4)n2)OC[C@]3(C)n2cccc2)C(F)(F)F)cc2cccnc12` [Example 10, 8-methoxy-N-((S)-3,3,3-trifluoro-2-((R)-7-(4-fluorophenyl)-3-methyl-3-(1H-pyrrol-1-yl)-2,3-dihydrofuro[2,3-c]pyridin-5-yl)-2-hydroxypropyl)quinoline-6-carboxamide] was tested, and the EC50 [1, 3] was greater than 200 nM.
`COc1cc(C(=O)NC[C@](O)(c2cc3c(c(-c4ccc(F)cc4)n2)OC[C@]3(C)n2cnnc2)C(F)(F)F)cc2cccnc12` [Example 7, 8-methoxy-N-((S)-3,3,3-trifluoro-2-((R)-7-(4-fluorophenyl)-3-methyl-3-(4H-1,2,4-triazol-4-yl)-2,3-dihydrofuro[2,3-c]pyridin-5-yl)-2-hydroxypropyl)quinoline-6-carboxamide] showed an EC50 [1, 3] greater than 200 nM.
`COc1cc(C(=O)NC[C@](C)(O)c2cc3c(c(-c4ccc(F)cc4)n2)OC[C@]3(C)n2cnnc2)cc2cccnc12` [Example 14, N-((S)-2-((R)-7-(4-fluorophenyl)-3-methyl-3-(4H-1,2,4-triazol-4-yl)-2,3-dihydrofuro[2,3-c]pyridin-5-yl)-2-hydroxypropyl)-8-methoxyquinoline-6-carboxamide] showed an EC50 [1, 3] greater than 200 nM.
